Measurements from patent US10004722B2, “Method for treating hepatic encephalopathy or a disease associated with free radical mediate stress and oxidative stress with novel functionalized 1,3-benzene diols” (KANNALIFE SCIENCES, INC., priority 2014, dated 2018).
Where “and” joins values, the source holds several entries; their conditions need not be identical. Equal entries are not always repeated. Where two headings read alike, the source gives them in different places.

How the values were obtained:
hippocampal cultures [1] = assay: cells; type: cell-based; settings: Rattus norvegicus, 30 mM ethanol, propidium iodide, read-out: NP from Ethanol PI EC50
Excerpt: Cell cultures: All compounds were screened with dissociated hippocampal cultures derived from embryonic day 18 rats as the primary test system. With this preparation, primary neurons were used to test for toxicity as well as neuroprotection in a highly relevant experimental system to hepatic encephalopathy (HE). In brief, hippocampal tissue was obtained commercially through Brain Bits (Springfield, Ill.) and cultures prepared as previously described (Brewer, 1995). The hippocampal neurons were platted at low density (10,000 cell/well) in a 96-well format and maintained in serum-free medium consisting of Neurobasal Medium supplemented with B27 and GlutaMAX (Gibco). […]
These studies use phenotypic assays of neuroprotection because the molecular target(s) mediating the action of cannabidiol-like protecting substances is unknown. […] Further, all time parameters employed in these studies were empirically determined to be within the limits of reversible toxic events after treatment with cannabidiol (Hamelink et al., 2005) and cannabidiol-like substances, yet using amounts of ethanol (30 mM) and ammonia (300 μM ammonium acetate) that were relevant to the disease. […]
Carboxyfluorescein (CFDA) was used a vital stain for all neuroprotection studies. […] The test agents were evaluated with the two assays during a 5 hour test period. […]

hippocampal cultures [2] = assay: Neuroprotection from 30 mM ethanol, CFDA assay; type: cell-based; settings: Rattus norvegicus, read-out: NP from Ethanol CFDA EC50
Protocol: Cell cultures: All compounds were screened with dissociated hippocampal cultures derived from embryonic day 18 rats as the primary test system. […] The hippocampal neurons were platted at low density (10,000 cell/well) in a 96-well format and maintained in serum-free medium consisting of Neurobasal Medium supplemented with B27 and GlutaMAX (Gibco).
The effective working concentration of ethanol that was empirically determined to produce toxicity in the hippocampal cultures was 30 mM.
Carboxyfluorescein (CFDA) was used a vital stain for all neuroprotection studies. With the use of the CytoFluor fluorimeter, the CFDA assay was employed to assess the viability of neurons. […] Cultures were treated within the period of culture vulnerability for toxins relevant to HE: between days 11 and 22 after cell plating. The test agents were evaluated with the two assays during a 5 hour test period. For all assays, a 96-well format was used. […] Cultures were given a complete change of medium prior to the initiation of the treatment period.
A compound of the disclosure was added to the hippocampal cultures for a five hour period. Compounds were tested from 10 nM to 100 μM. At the conclusion of the test period, the cultures were tested for the amount of neuronal viability by the CFDA method. […]

hippocampal cultures [3] = assay: cells; type: cell-based; settings: Rattus norvegicus, 300 μM ammonium acetate, propidium iodide, read-out: NP from AmAc PI EC50
Excerpt: (§1) Cell cultures: All compounds were screened with dissociated hippocampal cultures derived from embryonic day 18 rats as the primary test system. With this preparation, primary neurons were used to test for toxicity as well as neuroprotection in a highly relevant experimental system to hepatic encephalopathy (HE). In brief, hippocampal tissue was obtained commercially through Brain Bits (Springfield, Ill.) and cultures prepared as previously described (Brewer, 1995). The hippocampal neurons were platted at low density (10,000 cell/well) in a 96-well format and maintained in serum-free medium consisting of Neurobasal Medium supplemented with B27 and GlutaMAX (Gibco). Pre-coated poly-D-lysine coated plates will be used because of the adherence and survival of hippocampal neurons and glia on this matrix support.
(§2) The central objective of all neuroprotective assays was their relevancy to oxidative stress related to HE and other or diseases associated with oxidative stress in general. These studies use phenotypic assays of neuroprotection because the molecular target(s) mediating the action of cannabidiol-like protecting substances is unknown. Both the amount of ethanol and ammonia used in the assays, as well as the time of treatment and duration of the experiment, were designed to be relevant to HE (Ong et al, 2003). […]

hippocampal cultures [4] = assay: Neuroprotection from 300 μM ammonium acetate, CFDA assay; type: cell-based; settings: Rattus norvegicus, read-out: NP from AmAc CFDA EC50
Excerpt: as §1, §2

hippocampal cultures [5] = assay: Neuroprotection from 30 mM ethanol plus 300 μM ammonium acetate, propidium iodide (PI) assay; type: cell-based; settings: Rattus norvegicus, read-out: NP from ethanol + AmAc PI EC50
Excerpt: as §1, §2

hippocampal cultures [6] = assay: Neuroprotection from 30 mM ethanol plus 300 μM ammonium acetate, CFDA assay; type: cell-based; settings: Rattus norvegicus, read-out: NP from ethanol + AmAc CFDA EC50
Excerpt: as §1, §2

[7] = Pharmacokinetic profile after an IV dose in CD1 mice; type: in vivo
Protocol: (§3) The pharmacokinetic profile of compounds of the disclosure are determined in CD1 mice by administering IV and PO doses of the compounds of the disclosure to the CD1 mice. Plasma samples are drawn at 0.083, 0.25, 0.5, 1.0, 2.0, 4.0, 8.0, and 24 hours to determine the plasma concentration of the compounds of the disclosure. Brain and CSF samples were collected at 0.25 hours, 2 hours, and 8 hours post dosing. IV doses were prepared as solutions in 5% Dimethylacetamide (DMAC), 5% Solutol HS 15 and 90% Saline at 0.4 mg/mL PO doses were prepared as solutions in 5% Dimethylacetamide (DMAC), 5% Solutol HS 15 and 90% Saline at 1 mg/mL. Experimental results for exemplary compounds of the disclosure are described in tables 6-9 and FIGS. 1 and 2.

in vivo = assay: in vivo; parameters: species or system CD1 mice
Protocol: as §3

[8] = CD1, mouse, in vivo, iv, 2 mg/kg
[9] = CD1, mouse, in vivo, po, 10 mg/kg
[10] = PO 10 mg/kg, CD1 mice, 0.25 hr, listed as KLS-13019, 10 mg/kg
[11] = PO 10 mg/kg, CD1 mice, 2 hr, listed as KLS-13019, 10 mg/kg

**Q.** Which EC50 (hippocampal cultures [1]) does the source give for C=C(C)[C@@H]1CCC(C)=C[C@H]1c1c(O)cc(CC2CN(C(C)=O)C2)cc1O [Example 2, 1-(3-(3,5-dihydroxy-4-((1R,6R)-3-methyl-6-(prop-1-en-2-yl)cyclohex-2-enyl)benzyl)azetidin-1-yl)ethanone] here?
**A.** The EC50 was 46 nM.

**Q.** What about the EC50 (hippocampal cultures [2]) of the same compound?
**A.** Its EC50 is 175 nM.

**Q.** What about the EC50 (hippocampal cultures [3]) of the same compound?
**A.** Its EC50 is 38 nM.

**Q.** What about the EC50 (hippocampal cultures [4]) of the same compound?
**A.** The EC50 was 61 nM.

**Q.** And the EC50 (hippocampal cultures [5])?
**A.** Its EC50 is 203 nM.

**Q.** What about the EC50 (hippocampal cultures [6]) of the same compound?
**A.** Its EC50 is 127 nM.

**Q.** What about the AUC(0-inf) [7, 8] of the same compound?
**A.** The AUC(0-inf) was 440 ng·h/mL.

**Q.** What about the AUC(0-t) [7, 8] of the same compound?
**A.** Its AUC(0-t) is 431 ng·h/mL.

**Q.** And the MRT inf [7, 8]?
**A.** Its MRT inf is 42.1 min.

**Q.** And the Vd [7, 8]?
**A.** The Vd was 3.19 L/kg.

**Q.** What about the clearance [7, 8] of the same compound?
**A.** The clearance was 75.8 mL/min/kg.

**Q.** And the half-life ([7]; mouse, plasma, IV 2 mg/kg, CD1 mice, read-out: Terminal t1/2 (converted))?
**A.** The half-life was 194 min.

**Q.** And the Tmax (in vivo; [9])?
**A.** Its Tmax is 15 min.

**Q.** What about the half-life (in vivo; [9]) of the same compound?
**A.** The half-life was 319 min.

**Q.** What about the concentration at 0.25 h (in vivo; CD1, mouse, in vivo, po, 10 mg/kg, PO 10 mg/kg, CD1 mice, 0.25 hr, read-out: Brain concentration, mean) of the same compound?
**A.** The concentration at 0.25 h was 469 ng/mL.

**Q.** And the Kp at 0.25 h (in vivo; CD1, mouse, in vivo, po, 10 mg/kg, PO 10 mg/kg, CD1 mice, 0.25 hr, read-out: Brain/Plasma (%), individual)?
**A.** The Kp at 0.25 h was 0.801.

**Q.** What about the Kp at 0.25 h (in vivo; CD1, mouse, in vivo, po, 10 mg/kg, PO 10 mg/kg, CD1 mice, 0.25 hr, read-out: Brain/Plasma (%), mean) of the same compound?
**A.** The Kp at 0.25 h was 0.821.

**Q.** And the concentration at 0.25 h (in vivo; CD1, mouse, in vivo, po, 10 mg/kg, PO 10 mg/kg, CD1 mice, 0.25 hr, read-out: CSF concentration, mean)?
**A.** Its concentration at 0.25 h is 8.95 ng/mL.

**Q.** And the Kp at 0.25 h (in vivo; CD1, mouse, in vivo, po, 10 mg/kg, PO 10 mg/kg, CD1 mice, 0.25 hr, read-out: CSF/Plasma (%), individual)?
**A.** Its Kp at 0.25 h is 0.0179.

**Q.** What about the Kp at 0.25 h (in vivo; CD1, mouse, in vivo, po, 10 mg/kg, PO 10 mg/kg, CD1 mice, 0.25 hr, read-out: CSF/Plasma (%), mean) of the same compound?
**A.** The Kp at 0.25 h was 0.0155.

**Q.** And the concentration at 2 h (in vivo; CD1, mouse, in vivo, po, 10 mg/kg, PO 10 mg/kg, CD1 mice, 2 hr, read-out: Brain concentration, mean)?
**A.** Its concentration at 2 h is 126 ng/mL.

**Q.** What about the Kp at 2 h (in vivo; CD1, mouse, in vivo, po, 10 mg/kg, PO 10 mg/kg, CD1 mice, 2 hr, read-out: Brain/Plasma (%), individual) of the same compound?
**A.** Its Kp at 2 h is 1.15.

**Q.** And the Kp at 2 h (in vivo; CD1, mouse, in vivo, po, 10 mg/kg, PO 10 mg/kg, CD1 mice, 2 hr, read-out: Brain/Plasma (%), mean)?
**A.** Its Kp at 2 h is 1.17.

**Q.** And the concentration at 2 h (in vivo; CD1, mouse, in vivo, po, 10 mg/kg, PO 10 mg/kg, CD1 mice, 2 hr, read-out: CSF concentration, mean)?
**A.** Its concentration at 2 h is 2.65 ng/mL.

**Q.** What about the Kp at 2 h (in vivo; CD1, mouse, in vivo, po, 10 mg/kg, PO 10 mg/kg, CD1 mice, 2 hr, read-out: CSF/Plasma (%), individual) of the same compound?
**A.** Its Kp at 2 h is 0.0255.

**Q.** What about the Kp at 2 h (in vivo; CD1, mouse, in vivo, po, 10 mg/kg, PO 10 mg/kg, CD1 mice, 2 hr, read-out: CSF/Plasma (%), mean) of the same compound?
**A.** Its Kp at 2 h is 0.0291.

**Q.** What about the F (in vivo; CD1, mouse, po, 10 mg/kg) of the same compound?
**A.** Its F is 67.1%.

**Q.** What about the Tmax (in vivo; CD1, mouse, po, 10 mg/kg) of the same compound?
**A.** Its Tmax is 15 min.

**Q.** What about the half-life (in vivo; CD1, mouse, po, 10 mg/kg) of the same compound?
**A.** Its half-life is 322 min.

**Q.** And the “Brain/CSF, mean” value (in vivo; PO 10 mg/kg, CD1 mice, 0.25 hr)?
**A.** The value was 53.5.

**Q.** And the “Brain/CSF, individual” value (in vivo; [10])?
**A.** The value was 44.7 and 61.3 and 54.6.

**Q.** What about the “Brain/Plasma (%), individual” value (in vivo; [10]) of the same compound?
**A.** Its value is 87.4% and 78.7%.

**Q.** What about the “CSF/Plasma (%), individual” value (in vivo; [10]) of the same compound?
**A.** The value was 1.42% and 1.44%.

**Q.** What about the “Brain/CSF, mean” value (in vivo; PO 10 mg/kg, CD1 mice, 2 hr) of the same compound?
**A.** Its value is 43.7.

**Q.** And the “Brain/CSF, individual” value (in vivo; [11])?
**A.** The value was 45.0 and 60.3 and 25.9.

**Q.** And the “Brain/Plasma (%), individual” value (in vivo; [11])?
**A.** Its value is 136% and 101%.

**Q.** What about the “CSF concentration, individual” value (in vivo; [11]) of the same compound?
**A.** The value was 3.60 ng/mL and 3.00 ng/mL and 1.35 ng/mL.

**Q.** What about the “CSF/Plasma (%), individual” value (in vivo; [11]) of the same compound?
**A.** Its value is 2.26% and 3.91%.

**Q.** What about the “Brain concentration, individual” value (in vivo; PO 10 mg/kg, CD1 mice, 8 hr) of the same compound?
**A.** The value was “BQL”.

**Q.** And the “Brain concentration, mean” value (in vivo; PO 10 mg/kg, CD1 mice, 8 hr)?
**A.** The value was “BQL”.

**Q.** And the “Brain/Plasma (%), mean” value (in vivo; PO 10 mg/kg, CD1 mice, 8 hr)?
**A.** Its value is “BQL”.

**Q.** And the “CSF concentration, individual” value (in vivo; PO 10 mg/kg, CD1 mice, 8 hr)?
**A.** The value was “BQL”.

**Q.** And the “CSF concentration, mean” value (in vivo; PO 10 mg/kg, CD1 mice, 8 hr)?
**A.** The value was “BQL”.

**Q.** What about the “CSF/Plasma (%), mean” value (in vivo; PO 10 mg/kg, CD1 mice, 8 hr) of the same compound?
**A.** Its value is “BQL”.

**Q.** Which EC50 (hippocampal cultures [1]) does the source give for C=C(C)[C@@H]1CCC(C)=C[C@H]1c1c(O)cc(CC2CN(C(=O)OCC)C2)cc1O [Example 3, ethyl 3-(3,5-dihydroxy-4-((1R,6R)-3-methyl-6-(prop-1-en-2-yl)cyclohex-2-enyl)benzyl)azetidine-1-carboxylate] here?
**A.** The EC50 was 20 nM.

**Q.** What about the EC50 (hippocampal cultures [2]) of the same compound?
**A.** The EC50 was 30 nM.

**Q.** What about the EC50 (hippocampal cultures [3]) of the same compound?
**A.** The EC50 was 50 nM.

**Q.** What about the EC50 (hippocampal cultures [4]) of the same compound?
**A.** The EC50 was 105 nM.

**Q.** What about the EC50 (hippocampal cultures [5]) of the same compound?
**A.** The EC50 was 61 nM.

**Q.** What about the EC50 (hippocampal cultures [6]) of the same compound?
**A.** The EC50 was 87 nM.
